From ChEMBL document CHEMBL4020748, “Benzoxazolinone aryl sulfonamides as potent, selective Nav1.7 inhibitors with in vivo efficacy in a preclinical pain model” (Bioorg Med Chem Lett, 2017) come the findings set out here.

SMILES strings stand for the structures. Calls of active or inactive are those of the source. The rule behind the calls is not given here.

The nature of data set [1]: Selectivity ratio of IC50 for human Nav1.5alpha expressed in HEK293 cells to human Nav1.7alpha expressed in HEK293 cells.
Data set [2] can be described thus: Oral bioavailability in Wistar Hannover rat at 10 mg/kg. Format: ADME, organism-based. The settings on record: in vivo.
The next data set has as its system Rattus norvegicus. The experiment in a line: Unbound plasma clearance in Wistar Hannover rat at 2 mg/kg, iv. The class given is ADME, organism-based. The note with it: in vivo.
The target in data set [3] is T1, Sodium channel protein type 9 subunit alpha (Homo sapiens, UniProt Q15858). The experiment in a line: Inhibition of 50% inactivated human Nav1.7alpha expressed in HEK293 cells incubated for 5 mins measured at 10 secs interval by PatchXpress automated electrophysiology method. The class given is cell-based.
Data set [4] in a line: Half life in Wistar Hannover rat at 2 mg/kg, iv. Format: ADME, organism-based. The settings on record: in vivo.
Data set [5] can be described thus: Apparent permeability of the compound. Format: physicochemical. The settings on record: not told.
In data set [6] the target is Sodium channel protein type 5 subunit alpha (Homo sapiens, UniProt Q14524). The experiment in a line: Inhibition of 50% inactivated human Nav1.5alpha expressed in HEK293 cells incubated for 5 mins measured at 10 secs interval by PatchXpress automated electrophysiology method. The class given is ADME, cell-based.
Data set [7] concerns Mus musculus. The experiment in a line: Analgesic activity in C57BL/6 mouse assessed as reduction in formalin-induced nociceptive behavior at 100 mg/kg, sc pretreated for 90 mins followed by formalin challenge measured after 20 to 35 mins. Format: functional, organism-based.
Data set [8] relates to Mus musculus. The experiment in a line: Analgesic activity in C57BL/6 mouse assessed as unbound concentration required for 50% reduction in formalin-induced nociceptive behavior at 100 mg/kg, sc pretreated for 90 mins followed by formalin challenge measured after 20 to 35 mins. The class given is functional.
Data set [9] deals with T2, Sodium channel protein type 9 subunit alpha (Mus musculus, UniProt Q62205). The experiment in a line: Inhibition of NaV1.7 channel in mouse DRG neurons assessed as reduction of TTX-sensitive current by whole cell patch clamp assay.
In data set [10] the target is Voltage-dependent L-type calcium channel subunit alpha-1C (Homo sapiens, UniProt Q13936). The experiment in a line: Activity at Cav1.2 (unknown origin).
In data set [11] the test system is Mus musculus. The experiment in a line: Analgesic activity in C57BL/6 mouse assessed as reduction in formalin-induced nociceptive behavior administered subcutaneously pretreated for 90 mins followed by formalin challenge measured up to 30 mins. The class given is functional.
Data set [12] addresses T1, Sodium channel protein type 9 subunit alpha. The experiment in a line: Inhibition of NaV1.7 channel in human DRG neurons assessed as reduction of TTX-sensitive current by whole cell patch clamp assay.
For data set [13], the target named is T3, Nuclear receptor subfamily 1 group I member 2 (Homo sapiens, UniProt O75469).
T3 sequence (O75469 whole entry): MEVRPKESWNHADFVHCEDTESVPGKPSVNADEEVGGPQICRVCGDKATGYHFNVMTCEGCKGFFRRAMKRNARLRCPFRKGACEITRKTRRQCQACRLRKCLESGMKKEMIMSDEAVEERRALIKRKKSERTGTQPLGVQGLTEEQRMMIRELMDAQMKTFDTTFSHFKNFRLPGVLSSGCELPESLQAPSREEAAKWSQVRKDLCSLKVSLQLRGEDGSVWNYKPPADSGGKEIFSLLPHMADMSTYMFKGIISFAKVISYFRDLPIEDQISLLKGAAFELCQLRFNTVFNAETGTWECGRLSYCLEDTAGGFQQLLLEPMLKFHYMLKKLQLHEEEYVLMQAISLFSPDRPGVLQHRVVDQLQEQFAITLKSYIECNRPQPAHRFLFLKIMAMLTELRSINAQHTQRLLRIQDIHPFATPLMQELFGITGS
The experiment in a line: Activity at PXR (unknown origin). Format: ADME.

Data set [14] has as its system Mus musculus. The experiment in a line: Analgesic activity in C57BL/6 mouse assessed as reduction in formalin-induced nociceptive behavior at 100 mg/kg, sc pretreated for 90 mins followed by formalin challenge measured up to 5 mins. Format: functional, organism-based.
A short description of data set [15]: Activity at CYP450 (unknown origin). Format: ADME. The note with it: human.
Data set [16] in a line: Fraction unbound in Wistar Hannover rat plasma. The class given is ADME, cell-free.
In data set [17] the target is Voltage-gated inwardly rectifying potassium channel KCNH2 (Homo sapiens, UniProt Q12809). The experiment in a line: Activity at human ERG.
Data set [18] addresses Sodium channel protein type 2 subunit alpha (Homo sapiens, UniProt Q99250). The experiment in a line: Inhibition of Nav1.2 (unknown origin).
Data set [19] deals with Sodium channel protein type 9 subunit alpha (Rattus norvegicus, UniProt O08562). The experiment in a line: Inhibition of NaV1.7 channel in rat DRG neurons assessed as reduction of TTX-sensitive sodium current by whole cell patch clamp assay.
A short description of data set [20]: Ratio of drug level in CSF to plasma in rat. Format: ADME.
The target of data set [21] is T2, Sodium channel protein type 9 subunit alpha. The experiment in a line: Inhibition of 50% inactivated mouse Nav1.7alpha incubated for 5 mins measured at 10 secs interval by PatchXpress automated electrophysiology method.
A short description of data set [22]: Ratio of fIC50 for analgesic activity in formalin-induced nociceptive C57BL/6 mouse model assessed as reduction in nociceptive behavior to IC50 for 50% inactivated mouse Nav1.7alpha.
A short description of data set [23]: Ratio of drug level in brain to plasma in rat. The class given is ADME.
A short description of data set [24]: Fraction unbound in C57BL/6 mouse plasma at 100 mg/kg, sc. Format: ADME, organism-based.

T2 sequence (Q62205 whole entry): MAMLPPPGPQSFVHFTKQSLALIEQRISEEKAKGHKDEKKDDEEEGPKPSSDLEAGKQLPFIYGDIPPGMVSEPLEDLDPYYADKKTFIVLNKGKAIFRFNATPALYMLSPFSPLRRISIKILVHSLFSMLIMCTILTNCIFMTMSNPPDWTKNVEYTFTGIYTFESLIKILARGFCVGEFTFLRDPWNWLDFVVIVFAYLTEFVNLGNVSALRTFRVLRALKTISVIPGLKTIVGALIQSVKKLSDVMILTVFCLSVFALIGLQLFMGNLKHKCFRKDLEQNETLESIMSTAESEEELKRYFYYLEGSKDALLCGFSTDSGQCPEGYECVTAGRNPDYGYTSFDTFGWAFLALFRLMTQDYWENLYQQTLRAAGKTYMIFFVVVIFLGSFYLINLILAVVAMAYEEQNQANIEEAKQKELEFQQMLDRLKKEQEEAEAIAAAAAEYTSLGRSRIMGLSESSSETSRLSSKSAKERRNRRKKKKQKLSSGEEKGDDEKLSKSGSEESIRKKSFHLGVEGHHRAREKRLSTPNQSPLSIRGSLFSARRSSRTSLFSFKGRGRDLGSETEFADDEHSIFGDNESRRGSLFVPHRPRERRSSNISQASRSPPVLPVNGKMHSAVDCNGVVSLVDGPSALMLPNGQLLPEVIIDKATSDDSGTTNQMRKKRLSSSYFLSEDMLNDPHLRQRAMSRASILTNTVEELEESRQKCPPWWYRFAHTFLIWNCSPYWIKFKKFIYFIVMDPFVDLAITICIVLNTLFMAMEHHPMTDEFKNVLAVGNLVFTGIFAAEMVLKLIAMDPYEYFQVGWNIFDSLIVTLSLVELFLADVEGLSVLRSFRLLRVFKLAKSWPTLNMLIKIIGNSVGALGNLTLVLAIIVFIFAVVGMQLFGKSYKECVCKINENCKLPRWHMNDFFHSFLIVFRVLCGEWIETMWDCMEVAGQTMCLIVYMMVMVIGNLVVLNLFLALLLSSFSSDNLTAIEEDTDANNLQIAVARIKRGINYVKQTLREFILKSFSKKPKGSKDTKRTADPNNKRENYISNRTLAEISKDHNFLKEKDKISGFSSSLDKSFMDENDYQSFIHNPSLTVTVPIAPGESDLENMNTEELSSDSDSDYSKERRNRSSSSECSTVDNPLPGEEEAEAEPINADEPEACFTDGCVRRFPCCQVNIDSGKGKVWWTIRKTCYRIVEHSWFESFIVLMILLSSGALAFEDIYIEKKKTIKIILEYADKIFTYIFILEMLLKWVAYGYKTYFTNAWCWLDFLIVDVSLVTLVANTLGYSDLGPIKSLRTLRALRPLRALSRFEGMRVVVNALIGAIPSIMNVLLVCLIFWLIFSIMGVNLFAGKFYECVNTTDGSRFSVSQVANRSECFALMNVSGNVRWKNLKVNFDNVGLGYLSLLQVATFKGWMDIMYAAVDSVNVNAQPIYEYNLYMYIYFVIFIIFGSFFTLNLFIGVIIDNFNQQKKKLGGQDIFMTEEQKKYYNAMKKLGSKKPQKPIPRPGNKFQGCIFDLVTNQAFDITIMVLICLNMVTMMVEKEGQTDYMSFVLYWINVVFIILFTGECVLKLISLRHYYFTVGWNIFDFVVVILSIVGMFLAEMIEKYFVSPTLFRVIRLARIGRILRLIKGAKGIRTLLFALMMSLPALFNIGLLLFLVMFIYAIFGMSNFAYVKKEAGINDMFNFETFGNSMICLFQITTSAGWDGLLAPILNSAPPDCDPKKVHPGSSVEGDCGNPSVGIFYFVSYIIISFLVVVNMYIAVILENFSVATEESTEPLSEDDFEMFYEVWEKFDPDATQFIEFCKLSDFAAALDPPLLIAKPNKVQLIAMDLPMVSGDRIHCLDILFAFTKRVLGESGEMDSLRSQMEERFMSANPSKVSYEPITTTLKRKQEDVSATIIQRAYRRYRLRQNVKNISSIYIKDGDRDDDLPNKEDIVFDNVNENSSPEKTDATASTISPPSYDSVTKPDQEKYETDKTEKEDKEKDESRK
Sodium channel protein type 5 subunit alpha, sequence (Q14524 whole entry): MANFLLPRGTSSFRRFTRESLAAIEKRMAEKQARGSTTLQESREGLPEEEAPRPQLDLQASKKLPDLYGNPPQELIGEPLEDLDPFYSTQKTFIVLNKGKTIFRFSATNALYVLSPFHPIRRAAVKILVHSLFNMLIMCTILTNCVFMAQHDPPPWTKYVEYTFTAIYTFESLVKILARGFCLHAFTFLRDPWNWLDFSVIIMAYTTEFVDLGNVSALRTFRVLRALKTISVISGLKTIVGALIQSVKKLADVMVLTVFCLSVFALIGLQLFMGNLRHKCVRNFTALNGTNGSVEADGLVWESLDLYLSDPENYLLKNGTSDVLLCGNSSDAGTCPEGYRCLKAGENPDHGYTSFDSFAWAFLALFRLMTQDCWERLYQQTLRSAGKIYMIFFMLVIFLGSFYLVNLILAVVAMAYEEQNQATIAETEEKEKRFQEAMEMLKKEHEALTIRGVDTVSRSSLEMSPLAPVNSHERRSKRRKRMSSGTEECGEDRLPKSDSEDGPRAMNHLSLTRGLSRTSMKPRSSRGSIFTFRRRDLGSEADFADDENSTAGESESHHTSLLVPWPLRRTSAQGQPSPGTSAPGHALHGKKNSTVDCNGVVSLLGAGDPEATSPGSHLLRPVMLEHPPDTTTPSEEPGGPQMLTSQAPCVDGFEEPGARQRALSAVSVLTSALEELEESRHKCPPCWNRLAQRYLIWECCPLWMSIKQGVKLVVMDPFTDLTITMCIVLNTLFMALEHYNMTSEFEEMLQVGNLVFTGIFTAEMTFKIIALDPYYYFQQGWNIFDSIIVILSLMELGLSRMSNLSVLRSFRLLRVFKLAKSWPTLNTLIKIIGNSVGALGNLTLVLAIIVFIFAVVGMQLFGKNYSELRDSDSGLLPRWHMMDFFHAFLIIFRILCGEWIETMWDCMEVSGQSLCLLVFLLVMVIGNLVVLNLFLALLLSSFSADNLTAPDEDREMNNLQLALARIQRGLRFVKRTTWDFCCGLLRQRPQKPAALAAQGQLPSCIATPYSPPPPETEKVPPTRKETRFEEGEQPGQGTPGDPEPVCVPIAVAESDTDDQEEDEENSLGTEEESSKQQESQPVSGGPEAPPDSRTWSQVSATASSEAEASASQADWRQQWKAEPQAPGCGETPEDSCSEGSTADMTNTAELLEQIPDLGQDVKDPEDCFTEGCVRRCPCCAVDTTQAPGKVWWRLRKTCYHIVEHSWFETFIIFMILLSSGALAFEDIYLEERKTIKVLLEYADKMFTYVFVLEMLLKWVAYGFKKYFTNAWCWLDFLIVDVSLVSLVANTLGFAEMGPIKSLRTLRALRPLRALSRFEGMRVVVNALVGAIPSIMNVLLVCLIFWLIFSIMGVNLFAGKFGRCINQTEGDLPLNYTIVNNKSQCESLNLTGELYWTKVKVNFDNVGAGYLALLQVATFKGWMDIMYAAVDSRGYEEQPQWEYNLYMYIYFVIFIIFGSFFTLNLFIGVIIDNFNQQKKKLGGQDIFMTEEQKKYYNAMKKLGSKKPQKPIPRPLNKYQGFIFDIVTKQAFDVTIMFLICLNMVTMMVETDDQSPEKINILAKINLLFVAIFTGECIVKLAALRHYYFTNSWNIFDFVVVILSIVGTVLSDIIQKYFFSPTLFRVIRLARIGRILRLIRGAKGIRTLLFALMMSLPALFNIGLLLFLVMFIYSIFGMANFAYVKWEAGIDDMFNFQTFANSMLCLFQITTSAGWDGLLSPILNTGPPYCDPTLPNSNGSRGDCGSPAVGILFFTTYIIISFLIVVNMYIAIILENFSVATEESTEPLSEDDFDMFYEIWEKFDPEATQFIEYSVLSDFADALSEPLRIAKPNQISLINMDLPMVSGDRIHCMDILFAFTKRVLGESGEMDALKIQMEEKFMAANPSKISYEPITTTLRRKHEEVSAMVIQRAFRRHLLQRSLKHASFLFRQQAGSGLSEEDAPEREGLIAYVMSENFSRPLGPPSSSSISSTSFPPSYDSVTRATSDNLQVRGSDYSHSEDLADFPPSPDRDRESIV
Voltage-gated inwardly rectifying potassium channel KCNH2, sequence (Q12809 whole entry): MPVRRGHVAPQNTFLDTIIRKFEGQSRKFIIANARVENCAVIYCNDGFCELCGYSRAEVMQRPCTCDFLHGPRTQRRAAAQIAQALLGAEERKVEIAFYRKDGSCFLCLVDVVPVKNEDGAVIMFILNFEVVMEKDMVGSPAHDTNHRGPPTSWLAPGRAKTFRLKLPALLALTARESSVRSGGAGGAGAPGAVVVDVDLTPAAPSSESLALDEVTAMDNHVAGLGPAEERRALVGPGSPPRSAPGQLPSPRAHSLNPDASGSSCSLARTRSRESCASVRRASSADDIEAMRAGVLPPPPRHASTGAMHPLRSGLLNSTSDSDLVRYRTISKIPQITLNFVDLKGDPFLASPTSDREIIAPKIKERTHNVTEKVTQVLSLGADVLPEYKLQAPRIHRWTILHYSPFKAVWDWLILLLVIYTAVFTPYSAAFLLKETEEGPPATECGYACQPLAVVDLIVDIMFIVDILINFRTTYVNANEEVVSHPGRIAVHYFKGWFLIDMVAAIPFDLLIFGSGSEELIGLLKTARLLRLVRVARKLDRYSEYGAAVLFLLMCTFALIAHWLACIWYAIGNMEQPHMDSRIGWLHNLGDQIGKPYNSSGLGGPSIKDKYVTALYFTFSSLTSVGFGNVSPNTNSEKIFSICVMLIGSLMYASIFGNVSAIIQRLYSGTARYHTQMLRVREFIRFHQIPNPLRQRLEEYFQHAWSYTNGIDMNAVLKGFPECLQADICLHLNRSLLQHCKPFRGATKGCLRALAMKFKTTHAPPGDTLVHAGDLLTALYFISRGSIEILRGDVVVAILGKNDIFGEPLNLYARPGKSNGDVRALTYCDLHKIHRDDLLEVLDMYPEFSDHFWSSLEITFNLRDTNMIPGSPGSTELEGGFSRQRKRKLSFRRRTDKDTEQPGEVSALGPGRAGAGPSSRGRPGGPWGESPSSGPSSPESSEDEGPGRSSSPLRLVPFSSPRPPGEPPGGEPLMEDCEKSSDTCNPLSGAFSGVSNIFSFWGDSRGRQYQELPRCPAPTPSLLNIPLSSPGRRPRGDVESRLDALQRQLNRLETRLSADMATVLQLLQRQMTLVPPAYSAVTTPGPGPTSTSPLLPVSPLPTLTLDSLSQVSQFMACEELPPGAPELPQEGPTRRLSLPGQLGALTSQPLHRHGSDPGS

On to `C[C@H](c1cccc2c1CNCC2)n1c(=O)oc2cc(S(=O)(=O)Nc3ccc(F)cn3)c(F)cc21`, for which the “Ratio IC50” value in [1] is 108.
For the compound `C[C@H](c1cccc2c1CNCC2)n1c(=O)oc2cc(S(=O)(=O)Nc3cccc(F)n3)c(F)cc21`, in data set [2], the bioavailability is 30%. The compound further displayed a CL free in the data set with Rattus norvegicus of 300 mL/min/kg. The same compound displayed an IC50 in [3] of 150 nM. Besides, the “Ratio IC50” value in data set [1] is recorded as 210. In data set [4], this compound gave a half-life of 1.9 h. Further, the Papp in data set [5] is 2.5 ×10⁻⁶ cm/s.
With `O=c1oc2cc(S(=O)(=O)Nc3ncns3)ccc2n1Cc1ccccc1`, the “Ratio IC50” value in data set [1] is recorded as above 62. Moreover, the IC50 in data set [6] is above 30000 nM.
In the case of `C[C@H](c1ccccc1)n1c(=O)oc2cc(S(=O)(=O)Nc3ncns3)ccc21`, the “Ratio IC50” value in data set [1] was 287.
Still for that read-out and setting: next, `O=S(=O)(Nc1ncns1)c1ccc2c(cnn2Cc2ccccc2)c1`: 6.
In the case of `O=C1COc2cc(S(=O)(=O)Nc3ncns3)ccc2N1Cc1ccccc1`, the IC50 in [3] is 815 nM; in data set [6] it was above 30000 nM. In data set [1], the “Ratio IC50” value is listed as above 37.
The compound `O=c1oc2cc(S(=O)(=O)Nc3ncns3)ccc2n1Cc1cccc2c1CNCC2` registered an IC50 in data set [3] of 190 nM. For the same compound, the “Ratio IC50” value in [1] is listed as above 158.
For `C[C@H](c1cccc2c1CNCC2)n1c(=O)oc2cc(S(=O)(=O)Nc3ncns3)ccc21`, the IC50 is 23000 nM in the data set on Mus musculus [7]; 21 nM in [3]; 82 nM in [9]; 31 nM in data set [12]; 29 nM in [18]; 2370 nM in [19]. For the same compound, the IC50 in [21] was 30 nM. The compound further displayed a bioavailability in data set [2] of 2%. Further, the CL free with Rattus norvegicus worked out at 360 mL/min/kg. Besides, the fIC50 in the data set with Mus musculus [8] is 1.5 µM. Also, the Activity result in data set [10] was “Not Active”; in the data set with Mus musculus [11] it was “Dose-dependent effect”; in data set [13], “Not Active”; in data set [15], “Not Active”; in data set [17], “Not Active”. Moreover, the outcome in the data set on Mus musculus [14] was Active. The fraction unbound stood at 0.133 in data set [16] and 0.065 in data set [24]. The “Ratio IC50” value in data set [1] worked out at 1381. In addition, the half-life in data set [4] is 0.8 h. Moreover, the Ratio in data set [20] was 0%; in data set [22], 50. Also, the BPR in [23] is 1%. Moreover, the Papp in data set [5] is below 2 ×10⁻⁶ cm/s.
`C[C@H](c1cccc2c1CNCC2)n1c(=O)oc2cc(S(=O)(=O)Nc3cc(Cl)ccn3)c(F)cc21`: in data set [1], the “Ratio IC50” value was 88.
Consider `C[C@H](c1ccccc1CN)n1c(=O)oc2cc(S(=O)(=O)Nc3cccc(F)n3)c(F)cc21`, for which the IC50 in the data set with Mus musculus [7] stood at 7400 nM; in data set [3], 39 nM; in [21] it was 11 nM. In [2], this compound yielded a bioavailability of 50%. The CL free in the data set with Rattus norvegicus stood at 170 mL/min/kg. Also, the fIC50 with Mus musculus [8] turned out to be 1.1 µM. In addition, the “Ratio IC50” value in data set [1] is on record as 850. In [4], this compound showed a half-life of 3 h. Moreover, the Ratio in data set [22] is reported as 100. Besides, the fraction unbound in data set [24] came to 0.145. For the same compound, in data set [5], the Papp came out at 4 ×10⁻⁶ cm/s.
With `O=c1sc2cc(S(=O)(=O)Nc3ncns3)ccc2n1Cc1ccccc1`, the IC50 in [3] is 970 nM; in data set [6] it was above 30000 nM. For the same compound, the “Ratio IC50” value in data set [1] is reported as above 31.
